Laboratory results: patent US20070093513A1, “Agent for repairing corneal perception” (SENJU PHARMACEUTICAL CO., LTD., priority 2003, published 2007)
Where a name gives a salt, the structure may show the parent alone.

Legend:
[1] = test system: cultured rabbit trigeminal nerve cells; experiment: Neurite outgrowth promoting effect in cultured rabbit trigeminal nerve cells (Experimental Example 2); assay type: cell-based, Japanese White Rabbits; conditions: cultured for 48 hrs, non-addition group about 31%
Text: Japanese White Rabbits (2-3 days old) purchased from KITAYAMA LABES Co., Ltd. were used.
As a ROCK inhibitor, 2-chloro-6,7-dimethoxy-N-[5-1H-indazolyl]quinazoline-4-amine, N-(1-benzyl-4-piperidinyl)-1H-indazole-5-amine dihydrochloride, 4-[2-(2,3,4,5,6-pentafluorophenyl)acryloyl]cinnamic acid and fasudil hydrochloride were used.
2-Chloro-6,7-dimethoxy-N-[5-1H-indazolyl]quinazoline-4-amine (hereinafter to be indicated as compound 1) used was synthesized according to Reference Example 1. N-(1-benzyl-4-piperidinyl)-1H-indazole-5-amine dihydrochloride.½ hydrate (hereinafter to be indicated as compound 2) used was synthesized according to Reference Example 2. 4-[2-(2,3,4,5,6-Pentafluorophenyl)acryloyl]cinnamic acid (hereinafter to be indicated as compound 3) used was synthesized according to Reference Example 3. Fasudil hydrochloride (hereinafter to be indicated as compound 4) used was a commercially available fasudil hydrochloride hydrate injection, “Eril Injection 30 mg” (manufactured by Asahi Kasei Corporation).
Rabbit trigeminal nerve cells were isolated in the same manner as in Experimental Example 1. For cell culture, a culture medium obtained by adding B27 Supplement (manufactured by GIBCO; final concentration 2% v/v) and L-glutamine (manufactured by GIBCO; concentration 1 mM) to neurobasal culture medium (manufactured by GIBCO) was used. A circular cover glass (diameter 12 mm; manufactured by SUMITOMO BAKELITE) after polylysine/laminin coating was placed in each well of a 24 well plate, and cells were plated on the cover glass at about 3×10^3 cells/well. After cell adhesion to the cover glass (about 2 hrs), the above-mentioned culture medium was changed to a culture medium containing each test substance (compound 1, final concentration 10 μM; compound 2, final concentration 10 μM; compound 3, final concentration 1 μM; compound 4, final concentration 10 μM) and the cells were cultured for 48 hrs. […]
A specimen fixed using an anti-neurofilament 200 antibody (manufactured by Sigma) that recognize neurofilaments, which are intermediate filaments specific to nerve cell, and a fluorescent secondary antibody (manufactured by Molecular Probes) reactive therewith was fluorescence stained and the stained cells were detected using a fluorescence microscope. […] The whole cell number (t) of each image was counted. Along therewith, the length of cell neurite and the diameter of cell body were measured using an image analysis software (MacSCOPE, manufactured by MITANI CO.), and the cells having a neurite with a length of not less than twice the diameter of the cell body were counted as neuritogenetic cell (a). Then the rate (%) of the total neuritogenetic cell number (a1+a2+ . . . +an=Σa) to the total cell number (Σt) was calculated. […]

Row | Compound | rate of the neuritogenetic cells relative to the total cells ([1]; final concentration 10 μM) | melting point | rate of the neuritogenetic cells relative to the total cells ([1]; final concentration 1 μM)
1 | COc1cc2nc(Cl)nc(Nc3ccc4[nH]ncc4c3)c2cc1OC [compound 1, 2-Chloro-6,7-dimethoxy-N-[5-1H-indazolyl]quinazoline-4-amine] | about 41% | 278.7 to 283.8 °C | –
2 | Cl.Cl.Cl.Cl.O.c1ccc(CN2CCC(Nc3ccc4[nH]ncc4c3)CC2)cc1.c1ccc(CN2CCC(Nc3ccc4[nH]ncc4c3)CC2)cc1 [compound 2, N-(1-benzyl-4-piperidinyl)-1H-indazole-5-amine dihydrochloride.½ hydrate] | about 57% | – | –
3 | C=C(C(=O)c1ccc(C=CC(=O)O)cc1)c1c(F)c(F)c(F)c(F)c1F [compound 3, 4-[2-(2,3,4,5,6-Pentafluorophenyl)acryloyl]cinnamic acid] | – | – | about 51%
4 | O=S(=O)(c1cccc2cnccc12)N1CCCNCC1 [compound 4, Fasudil hydrochloride] | about 70% | – | –
